Entries after “also recorded” stand apart in the source; their conditions may differ.
Tests used:
Arom^hum mice [1] = assay: Hernia prevention in Arom^hum mice (treatment before hernia formation); assay type: in vivo, mouse; details: for hernia formation / hernia size: male Arom^hum mice, 12-week treatment started at 3-3.5 weeks of age (before hernia formation)
From the text: Our study design is robust, utilizing Arom^hum mice with endpoints examined after treatment with placebo or anti-P4/PGR, and compared to those of WT littermates using 2 different tissue sites: UAM and LAM (normal or weakened/herniated). Inguinal hernia affects predominantly men vs. women (10:1 ratio). Inguinal hernias are unique to male mice and aged men. […] Here, we will focus on the effects of P4/PGR action on skeletal muscle integrity and hernia formation in males, and our work will be carried out in male mice or tissues primarily from men over 50 years of age. We will use mouse or human tissues or primary cells to closely recapitulate in vivo pathology.
The mouse scrotum is connected to the peritoneal cavity with a narrow funicular (or inguinal) canal, with walls composed of LAM tissue. Structurally normal LAM tissue is essential to maintain the tone of this canal and prevent herniation of the bowel.
Experiment 1a1: Does the addition of P4 to E2 treatment accelerate LAM fibrosis and hernia formation in WT mice? […] We hypothesize that this effect is primarily mediated by the E2 induction of PGR expression in LAM fibroblasts. […] If this were true, the addition of pharmacologic quantities of P4 (75 mg/pellet for 12-week release)^73 to E2 (0.3 mg/pellet for 12-week release)^23-25 in WT mice should accelerate this phenotype. […] See Statistical Methods above for sample size calculation. Hernia surface area will be measured using a digital caliper and calculated as previously described (length×width)^19. At the designated endpoints, LAM and UAM (control) from each mouse will be resected, with one-half of the tissue snap-frozen in liquid nitrogen, and the other half fixed in 4% phosphate-buffered paraformaldehyde for histological and IHC analyses (see below). All tissue and serum (for P4/E2 levels) samples will be collected between 10:00 AM and noon to avoid possible variability in daily hormone fluctuations. […] We will continue to complete the rest of the proposed study in this subaim. We will also assess whether and extent of muscle fibrosis and atrophy will be induced in P4+E2-induced large hernias and E2-induced small hernias. […] P4 antagonists show various levels of selectivity for PGR. […] The use of 3 distinct P4/PGR antagonists with different properties will establish the role of PGR in muscle fibrosis and hernia.
(§1) Hernias will be classified as small, medium, or large if the bulging area through muscle tissue is 125-175 mm^2, 175-225 mm^2, or >225 mm^2, respectively. […] We will assess whether muscle fibrosis, atrophy, and hernia are arrested or reversed. […] Hernia size will be measured. After completion of treatment, the mice will be dissected, and LAM, UAM (control), and serum will be collected. A total of 100 mg of tissue (LAM and UAM) will be obtained and frozen for measurement of tissue E2/P4.

Arom^hum mice [2] = assay: Halting progression of small/medium-sized hernias in Arom^hum mice; assay type: in vivo, mouse; details: 12-week treatment started when small/medium-sized hernias were formed, n=10, vs placebo
Description: The treatment started when small/medium-sized hernias were formed. ****p<0.0001.
as §1, with “E2/P4. Circulating and tissue E2/P4 levels will be measured using LC-MS^2. We will use immunoblotting and IHC to determine PGR expression in LAM and UAM tissues. PGR target gene expression (Greb1, Cyp7b1) will be measured in paraformaldehyde-fixed LAM tissues using RNAScope and IHC. […] We will continue to complete the rest of the proposed study in this subaim. We will also assess whether muscle fibrosis, atrophy, and large hernia are halted.” for “E2/P4.”

[3] = tested on: LAM fibroblasts from Arom^hum mice; assay: Click-iT EdU proliferation assay; assay type: cell-based, mouse; details: 1 μM antagonist; E2 (10 nM)+R5020 (100 nM)
[4] = tested on: LAM primary fibroblasts from Arom^hum mice; assay: mRNA levels of P4/PGR-responsive and fibrotic genes in LAM primary fibroblasts; assay type: cell-based, mouse; details: for E2+R5020-stimulated expression of Col1a1 and Col12a1, blockade: pretreatment with 1 μM antagonist
[5] = biological target: T1, glucocorticoid receptor (GR) (Homo sapiens, UniProt P04150); details: cited from earlier work
T1 sequence (P04150 1-777): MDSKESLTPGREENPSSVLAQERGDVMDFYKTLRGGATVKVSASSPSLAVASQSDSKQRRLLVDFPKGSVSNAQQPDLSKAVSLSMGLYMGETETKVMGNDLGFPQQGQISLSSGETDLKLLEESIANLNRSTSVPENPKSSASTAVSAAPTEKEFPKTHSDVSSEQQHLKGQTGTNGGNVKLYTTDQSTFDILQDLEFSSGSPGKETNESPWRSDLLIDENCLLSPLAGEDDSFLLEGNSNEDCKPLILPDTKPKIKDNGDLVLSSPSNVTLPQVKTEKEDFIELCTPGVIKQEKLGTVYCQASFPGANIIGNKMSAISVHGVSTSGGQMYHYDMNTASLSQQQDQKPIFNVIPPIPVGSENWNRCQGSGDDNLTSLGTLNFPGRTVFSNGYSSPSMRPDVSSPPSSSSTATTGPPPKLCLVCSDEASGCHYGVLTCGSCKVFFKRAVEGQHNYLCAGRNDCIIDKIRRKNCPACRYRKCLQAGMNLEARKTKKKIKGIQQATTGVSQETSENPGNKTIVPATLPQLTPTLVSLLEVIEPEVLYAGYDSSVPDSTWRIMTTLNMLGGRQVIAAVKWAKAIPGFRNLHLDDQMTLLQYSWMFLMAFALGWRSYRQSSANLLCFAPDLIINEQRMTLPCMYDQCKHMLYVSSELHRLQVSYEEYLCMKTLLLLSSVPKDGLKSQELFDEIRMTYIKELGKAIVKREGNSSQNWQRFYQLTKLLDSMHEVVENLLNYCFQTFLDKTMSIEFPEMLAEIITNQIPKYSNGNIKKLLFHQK

SMILES | LAM fibroblast proliferation in vivo (Ki67 IHC staining) (Arom^hum mice [1]; Arom^hum mice, placebo or RU486, n=6) | LAM tissue fibrosis, ECM deposition and myocyte atrophy (Masson's trichrome staining) (Arom^hum mice [1]; Arom^hum mice, vs placebo) | PGR-positive fibroblasts in LAM tissue (PGR IHC staining) (Arom^hum mice [1]; Arom^hum mice, vs placebo, n=10) | scrotal area (Arom^hum mice [1]; RU486-treated Arom^hum mice vs WT littermates) | hernia formation / hernia size (Arom^hum mice [1]; vs placebo) | progression (growth) of small/medium-sized hernias, hernia area (Arom^hum mice [2]) | inhibition of E2+R5020-stimulated LAM fibroblast proliferation [3] | E2+R5020-stimulated expression of Col1a1 and Col12a1, blockade [4] | anti-glucocorticoid activity [5] | E2+R5020-induced expression of P4/PGR-responsive (Greb1, Cyp7b1) and fibrotic genes (Adamtsl1, Col1a1, Col14a1) ([4]; 1 μM antagonist, pretreated 2 h before E2 (10 nM)+R5020 (100 nM))
CC#C[C@]1(O)CC[C@H]2[C@@H]3CCC4=CC(=O)CCC4=C3[C@@H](c3ccc(N(C)C)cc3)C[C@@]21C [RU486, Mifepristone] | blocked | prevents LAM fibrosis, excessive ECM deposition or myocyte atrophy; also recorded: prevented LAM tissue fibrosis and atrophy in all treated Arom^hum mice | much fewer fibroblasts with PGR IHC staining; also recorded: severely reduced numbers of PGR-positive fibroblasts | slightly larger than that of WT littermates but was maintained within the upper limit of normal with no evidence of herniation | prevented hernia formation in Arom^hum mice; also recorded: strikingly reduced hernia size or entirely prevented hernia development in all Arom^hum mice | halted the progression of small/medium-sized hernias in Arom^hum mice; also recorded: halted the growth of small- and medium-size hernias in all treated Arom^hum mice | inhibited; also recorded: blocked | blocked | has anti-glucocorticoid effects | 
CC(=O)O[C@]1(C(C)=O)CC[C@H]2[C@@H]3CCC4=CC(=O)CCC4=C3[C@@H](c3ccc(N(C)C)cc3)C[C@@]21C [UPA, Ulipristal acetate] |  |  |  |  | prevented hernia formation in Arom^hum mice; also recorded: also prevented hernia formation | halted the progression of small/medium-sized hernias in Arom^hum mice; also recorded: halted the growth of small- and medium-size hernias in all treated Arom^hum mice | inhibited; also recorded: blocked | blocked | extremely low anti-glucocorticoid activity | significantly decreased
